This is an account of results in US7544694B2, “Substituted diaza-spiro-[5.5]-undecane derivatives and their use as neurokinin antagonists” (Janssen Pharmaceutica N.V., priority 2004, dated 2009).

Common to all, as to format: cell-based
One test deals with NK1 (Homo sapiens, UniProt P25103). Kind of test: Signal transduction (ST), intracellular Ca++ (FLIPR), functional NK1 antagonistic activity. As to conditions: antagonist, read-out: NK1 pIC50 (converted). Summed up:
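Confluent cells were loaded with 2 μM Fluo3 for 1 h at 37° C, then washed into Krebs buffer pH 7.4 with 1.25 mM CaCl2 and 2.5 mM probenecid. Antagonists were preincubated 20 min at RT before agonist addition. Peak Ca++ transients were read by FLIPR, with EC50 or IC50 from sigmoidal non-linear regression.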

For the next test, the target named is T1, NK2 (Homo sapiens, UniProt P21452).
T1 sequence (P21452 1-398): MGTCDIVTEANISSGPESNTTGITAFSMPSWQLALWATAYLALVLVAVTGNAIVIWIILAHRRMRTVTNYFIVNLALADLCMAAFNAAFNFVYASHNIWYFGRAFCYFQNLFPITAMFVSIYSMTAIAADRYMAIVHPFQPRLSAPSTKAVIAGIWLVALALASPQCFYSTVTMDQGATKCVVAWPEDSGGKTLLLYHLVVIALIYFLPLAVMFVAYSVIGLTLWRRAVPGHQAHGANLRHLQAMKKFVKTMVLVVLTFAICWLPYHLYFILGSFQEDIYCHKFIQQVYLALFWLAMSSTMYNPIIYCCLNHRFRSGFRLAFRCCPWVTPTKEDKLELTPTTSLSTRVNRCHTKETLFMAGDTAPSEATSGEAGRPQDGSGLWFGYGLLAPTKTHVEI
Put plainly: Signal transduction (ST), intracellular Ca++ (FLIPR), NK2. Conditions: antagonist, read-out: NK2 pIC50 (converted).

The target of the next test is T2, NK3 (Homo sapiens, UniProt P29371).
T2 sequence (P29371 1-465): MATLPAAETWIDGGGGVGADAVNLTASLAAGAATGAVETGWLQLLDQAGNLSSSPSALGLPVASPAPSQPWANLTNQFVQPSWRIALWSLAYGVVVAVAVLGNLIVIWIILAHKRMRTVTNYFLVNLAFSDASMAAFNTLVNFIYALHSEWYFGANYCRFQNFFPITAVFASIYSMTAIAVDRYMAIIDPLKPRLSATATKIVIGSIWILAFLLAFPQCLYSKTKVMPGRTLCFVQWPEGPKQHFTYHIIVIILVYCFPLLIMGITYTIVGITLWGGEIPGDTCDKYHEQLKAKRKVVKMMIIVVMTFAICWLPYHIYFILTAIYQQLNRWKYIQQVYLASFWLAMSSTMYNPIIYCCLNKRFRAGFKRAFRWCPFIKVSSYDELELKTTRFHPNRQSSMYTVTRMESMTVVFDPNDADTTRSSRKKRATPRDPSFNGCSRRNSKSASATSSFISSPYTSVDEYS
Put plainly: Signal transduction (ST), intracellular Ca++ (FLIPR), NK3. As to conditions: antagonist, read-out: NK3 pIC50 (converted).

NK1, sequence (P25103 whole entry): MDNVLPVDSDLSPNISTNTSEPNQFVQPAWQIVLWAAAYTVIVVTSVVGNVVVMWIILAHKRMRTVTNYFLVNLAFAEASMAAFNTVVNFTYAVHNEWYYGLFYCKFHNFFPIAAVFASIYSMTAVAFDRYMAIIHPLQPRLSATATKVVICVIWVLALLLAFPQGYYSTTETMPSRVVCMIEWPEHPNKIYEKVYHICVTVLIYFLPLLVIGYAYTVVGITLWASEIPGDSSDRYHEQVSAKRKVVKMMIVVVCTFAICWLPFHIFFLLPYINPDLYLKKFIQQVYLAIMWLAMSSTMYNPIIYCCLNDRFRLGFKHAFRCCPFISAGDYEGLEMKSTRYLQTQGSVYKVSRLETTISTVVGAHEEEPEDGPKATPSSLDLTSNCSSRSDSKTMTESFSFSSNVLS

Consider `O=C(CC1C=CCC1)N1CCC2(CC1)CCN([C@H]1CCN(C(=O)c3cc(C(F)(F)F)cc(C(F)(F)F)c3)[C@H](Cc3ccccc3)C1)CC2` (stereo partly drawn) [Compound 70], for which the IC50 is 0.0813 µM on NK1, 5.37 µM at NK2 and > 10 µM at NK3.
Regarding `O=C(c1cc(C(F)(F)F)cc(C(F)(F)F)c1)N1CC[C@H](N2CCC3(CC2)CCN(S(=O)(=O)c2ccc(F)cc2)CC3)C[C@H]1Cc1ccccc1` [Compound 116], the IC50 is 0.0525 µM at NK1, > 10 µM at NK2 and 0.708 µM at NK3.
Taken in the same sequence, the figures for `O=C(c1ccncc1)N1CCC2(CC1)CCN([C@H]1CCN(C(=O)c3cc(C(F)(F)F)cc(C(F)(F)F)c3)[C@H](Cc3ccccc3)C1)CC2` [Compound 51] were 0.0295 µM, 3.63 µM and > 10 µM.
In the same order, the values of `O=C(c1cnccn1)N1CCC2(CC1)CCN([C@H]1CCN(C(=O)c3cc(C(F)(F)F)cc(C(F)(F)F)c3)[C@H](Cc3ccccc3)C1)CC2` [Compound 52] are 0.0603 µM, 2.88 µM and > 10 µM.
In the same order, the values of `CC12CCC(C(=O)N3CCC4(CC3)CCN([C@H]3CCN(C(=O)c5cc(C(F)(F)F)cc(C(F)(F)F)c5)[C@H](Cc5ccccc5)C3)CC4)(OC1=O)C2(C)C` (stereo partly drawn) [Compound 61] are 0.263 µM, > 10 µM and > 10 µM.
For `O=C(C1CC1)N1CCCC2(CCCN([C@H]3CCN(C(=O)c4cc(C(F)(F)F)cc(C(F)(F)F)c4)[C@H](Cc4ccccc4)C3)C2)C1` (stereo partly drawn) [Compound 208], the figures for the IC50 at NK1, at NK2 and on NK3 were 0.347 µM, 2.63 µM and 4.27 µM, respectively.
Taken in the same sequence, the figures for `O=C(c1cc(C(F)(F)F)cc(C(F)(F)F)c1)N1CC[C@H](N2CCC3(CC2)CCN(S(=O)(=O)c2c(Cl)sc(Cl)c2Br)CC3)C[C@H]1Cc1ccccc1` [Compound 99] were 0.562 µM, > 10 µM and > 10 µM.
In the same order, the values of `CC1(C)C(C(=O)N2CCC3(CC2)CCN([C@H]2CCN(C(=O)c4cc(C(F)(F)F)cc(C(F)(F)F)c4)[C@H](Cc4ccccc4)C2)CC3)C1(C)C` [Compound 16] are 0.191 µM, > 10 µM and 8.51 µM.
As for `CC(C)(C)CC(=O)N1CCC2(CC1)CCN([C@H]1CCN(C(=O)c3cc(C(F)(F)F)cc(C(F)(F)F)c3)[C@H](Cc3ccccc3)C1)CC2` [Compound 69], the IC50 at NK1 was 0.0646 µM; at NK2 it was 3.09 µM; at NK3 it was 6.61 µM.
Consider `O=C(c1cc(C(F)(F)F)cc(C(F)(F)F)c1)N1CC[C@H](N2CCC3(CC2)CCN(S(=O)(=O)c2ccccc2)CC3)C[C@H]1Cc1ccccc1` [Compound 102], for which the figures for the IC50 at NK1, at NK2 and on NK3 were 0.0617 µM, > 10 µM and 0.708 µM, respectively.
Taken in the same sequence, the figures for `O=C(C1CCOC1)N1CCCC2(CCN([C@H]3CCN(C(=O)c4cc(C(F)(F)F)cc(C(F)(F)F)c4)[C@H](Cc4ccccc4)C3)CC2)C1` (stereo partly drawn) [Compound 174] were 0.0407 µM, 6.92 µM and > 10 µM.
In the same order, the values of `O=C(c1cc(C(F)(F)F)cc(C(F)(F)F)c1)N1CCC(N2CCC3(CC2)CCN(S(=O)(=O)c2cccs2)CC3)CC1Cc1ccccc1` (stereo not drawn) [Compound 92] are 0.017 µM, 1.32 µM and 0.339 µM.
In the case of `O=C(c1ccsc1)N1CCC2(CCN(C[C@H]3CCN(C(=O)c4cc(C(F)(F)F)cc(C(F)(F)F)c4)[C@H](Cc4ccccc4)C3)CC2)CC1` [Compound 182], the IC50 at NK1 is 0.038 µM; on NK2, > 10 µM; at NK3, 9.12 µM.
In the same order, the values of `O=C(c1cc(C(F)(F)F)cc(C(F)(F)F)c1)N1CC[C@H](N2CCC3(CC2)CCN(S(=O)(=O)c2ccsc2)CC3)C[C@H]1Cc1ccccc1` [Compound 93] are 0.0257 µM, 1.1 µM and 0.501 µM.
For `CS(=O)(=O)c1ccccc1S(=O)(=O)N1CCC2(CCN([C@H]3CCN(C(=O)c4cc(C(F)(F)F)cc(C(F)(F)F)c4)[C@H](Cc4ccccc4)C3)CC2)CC1` [Compound 125], the IC50 was 0.158 µM at NK1, 5.13 µM at NK2 and 6.92 µM at NK3.
`CC1(C)OC(=O)CC1C(=O)N1CCC2(CC1)CCN([C@H]1CCN(C(=O)c3cc(C(F)(F)F)cc(C(F)(F)F)c3)[C@H](Cc3ccc(F)c(F)c3)C1)CC2` (stereo partly drawn) [Compound 138]: the results for the IC50 on NK1, on NK2 and on NK3 were 0.0178 µM, 4.68 µM and > 10 µM, respectively.
In the same order, the values of `O=C(CN1CCOC1=O)N1CCC2(CC1)CCN([C@H]1CCN(C(=O)c3cc(C(F)(F)F)cc(C(F)(F)F)c3)[C@H](Cc3ccccc3)C1)CC2` [Compound 79] are 0.17 µM, > 10 µM and > 10 µM.
Taken in the same sequence, the figures for `CC(C)(C)C(=O)N1CCC2(CC1)CCN([C@H]1CCN(C(=O)c3cc(C(F)(F)F)cc(C(F)(F)F)c3)[C@H](Cc3ccccc3)C1)CC2` [Compound 7] were 0.115 µM, > 10 µM and > 10 µM.
Taken in the same sequence, the figures for `O=C(C1CCOC1)N1CCC2(CC1)CCN([C@H]1CCN(C(=O)c3cc(C(F)(F)F)cc(C(F)(F)F)c3)[C@H](Cc3ccc(Cl)c(Cl)c3)C1)CC2` (stereo partly drawn) [Compound 132] were 0.00955 µM, 1.7 µM and 0.912 µM.
As to `O=C(c1cc(C(F)(F)F)cc(C(F)(F)F)c1)N1CC[C@H](N2CCC3(CC2)CCN(S(=O)(=O)c2c(Cl)cccc2Cl)CC3)C[C@H]1Cc1ccccc1` [Compound 111], the IC50 on NK1 is 0.204 µM; at NK2 it was ~0.229 µM; at NK3, 5.37 µM.
Taken in the same sequence, the figures for `CC(C)CN1CCC2(CCN([C@@H]3CCN(C(=O)c4cc(C(F)(F)F)cc(C(F)(F)F)c4)[C@H](Cc4ccccc4)C3)CC2)CC1=O` [Compound 193] were 0.24 µM, 2.51 µM and 5.75 µM.
Taken in the same sequence, the figures for `O=C(c1ncccc1O)N1CCC2(CC1)CCN([C@H]1CCN(C(=O)c3cc(C(F)(F)F)cc(C(F)(F)F)c3)[C@H](Cc3ccccc3)C1)CC2` [Compound 53] were 0.138 µM, > 10 µM and > 10 µM.
In the case of `Cc1ccccc1S(=O)(=O)N1CCC2(CCN([C@H]3CCN(C(=O)c4cc(C(F)(F)F)cc(C(F)(F)F)c4)[C@H](Cc4ccccc4)C3)CC2)CC1` [Compound 103], the values for the IC50 on NK1, on NK2 and at NK3 were 0.0501 µM, 2.51 µM and 1.51 µM, respectively.
In the same order, the values of `O=C(Cn1cnnn1)N1CCC2(CC1)CCN([C@H]1CCN(C(=O)c3cc(C(F)(F)F)cc(C(F)(F)F)c3)[C@H](Cc3ccccc3)C1)CC2` [Compound 77] are 0.0457 µM, ~8.13 µM and > 10 µM.
Taken in the same sequence, the figures for `O=C(C1CC1)N1CCC2(CC1)CCN([C@H]1CCN(C(=O)c3cc(C(F)(F)F)cc(C(F)(F)F)c3)[C@H](Cc3ccc(F)c(F)c3)C1)CC2` [Compound 136] were 0.017 µM, 2 µM and 0.692 µM.
Taken in the same sequence, the figures for `O=C(NCC(=O)N1CCC2(CC1)CCN([C@H]1CCN(C(=O)c3cc(C(F)(F)F)cc(C(F)(F)F)c3)[C@H](Cc3ccccc3)C1)CC2)c1ccco1` [Compound 73] were 0.0331 µM, > 10 µM and > 10 µM.
